# Legend:
# [1] = test system: human adipocytes; experiment: liberation of NEFA (non-esterified fatty acids) (LIPOLYSIS) by isolated human adipocytes; assay type: cell-based; settings: for % Control (NEFA liberation) / Average of the NEFA: 2 hours at 37° C.
# Procedure: (§1) In these experiments, adipocytes were isolated from abdominal restorative surgeries sampled in women. The experiment took place the day of the sampling. Fragments of adipose tissues were incubated for 30 minutes at 37° C. in the presence of collagenase, then the isolated adipocytes were washed and taken up in medium MEM buffered with bicarbonate, in the presence of antibiotics (penicillin/streptomycin), glutamine (2 mM), and delipidated bovine serum albumin (0.5%).
# As to the tests concerning the effect on lipolysis, they were conducted in the following manner. Adipocytes (540 μl of suspension) were incubated for 2 hours in a water bath at 37° C., with agitation, in the presence of 60 μl of different sterols. The experiments were carried out in triplicate.
# Then, the non-esterified fatty acids (AGNE) released by the adipocytes were determined in the sub-adipocyte media. The values obtained were treated by an analysis of variance (ANOVA) by means of the multiple comparison test of Dunnett. The values were considered as significant when the probability p was less than the threshold of significance 0.05.
# [2] = test system: human adipocytes; experiment: incorporation of [2-14C]-acetate into lipids (LIPOGENESIS) by isolated human adipocytes; assay type: cell-based; settings: for % control (incorporation of acetate) / % inhibition (incorporation of acetate) / Average of cpm (incorporation of acetate) / cpm - t0 test (incorporation of acetate) / inhibition at 10 µM / inhibition at 100 µM / inhibition at 1000 µM: 4 h; for inhibition at 10 µM / inhibition at 100 µM / inhibition at 1000 µM: Homo sapiens, Adipocyte
# Procedure: as §1
# The tests concerning the effect on lipogenesis were then conducted in the following manner.
# Adipocytes (90 μl of ¼ diluted suspension) were incubated for 1 hour, either with a control medium (4 hours), with molecules known to inhibit the neosynthesis of fatty acids (EPA), as for example […], or with previously diluted extracts (added under 100 μl).
# As to the sterols and to the lipidic extracts of plants or algae, they were diluted in mineral oil which has been verified to not inhibit incorporation or extraction of adipocyte lipids. Then, 10 μl of [2^14C]-acetate, 50 μCi/ml, were added, and the samples were either cultivated at 37° C. in the presence of 5% CO2 for 4 additional hours, or immediately frozen at −80° C. (control t0).
# At the times indicated, the samples were frozen at −80° C. The lipids were then extracted according to the method of Bligh and Dyer (extraction methanol/chloroform/water), then dried under nitrogen. The radioactivity incorporated was then counted by liquid scintillation.
# [3] = 0.01 mM (10^−5 M), absence of insulin
# [4] = 0.01 mM (10^−5 M), presence of insulin (1 nM)
# [5] = 0.1 mM (10^−4 M), absence of insulin
# [6] = 0.1 mM (10^−4 M), presence of insulin (1 nM)
# [7] = 1 mM (10^−3 M), absence of insulin
# [8] = 1 mM (10^−3 M), presence of insulin (1 nM)
# [9] = 10^−6 M, 10^−5 M, 10^−4 M, 10^−3 M and 10^−2 M
compound,measurement,setting,value
"CC[C@H](/C=C/[C@@H](C)[C@H]1CC[C@H]2[C@@H]3CC=C4C[C@@H](O)CC[C@]4(C)[C@H]3CC[C@]12C)C(C)C [Stigmasterol, stigmasterol]",liberation of fatty acids by isolated human adipocytes (conclusion),[1],increases the liberation of fatty acids
same,% Control (NEFA liberation),[1]; 10^−2 M,112%
same,Average of the NEFA,[1]; 10^−2 M,158 µM
same,% Control (NEFA liberation),[1]; 10^−3 M (1 mM),126%
same,Average of the NEFA,[1]; 10^−3 M (1 mM),178 µM
same,% Control (NEFA liberation),[1]; 10^−4 M,133%
same,Average of the NEFA,[1]; 10^−4 M,189 µM
same,% Control (NEFA liberation),[1]; 10^−5 M,128%
same,Average of the NEFA,[1]; 10^−5 M,180 µM
same,% Control (NEFA liberation),[1]; 10^−6 M (1 μM),112%
same,Average of the NEFA,[1]; 10^−6 M (1 μM),158 µM
same,effect on liberation of NEFA,[1]; 10^−6 M and 10^−2 M,did not show significant effect
same,% control (incorporation of acetate),[2]; [3],95%
same,% inhibition (incorporation of acetate),[2]; [3],weak and non-significant
same,Average of cpm (incorporation of acetate),[2]; [3],198442 cpm
same,cpm - t0 test (incorporation of acetate),[2]; [3],191977 cpm
same,% control (incorporation of acetate),[2]; [4],98%
same,% inhibition (incorporation of acetate),[2]; [4],2%
same,Average of cpm (incorporation of acetate),[2]; [4],235529 cpm
same,cpm - t0 test (incorporation of acetate),[2]; [4],229064 cpm
same,% inhibition (incorporation of acetate),"[2]; 0.01 mM (10^−5 M), presence of insulin (1 nM), listed as stigmasterol",less than 5%
same,% control (incorporation of acetate),[2]; [5],96%
same,% inhibition (incorporation of acetate),[2]; [5],weak and non-significant
same,Average of cpm (incorporation of acetate),[2]; [5],200467 cpm
same,cpm - t0 test (incorporation of acetate),[2]; [5],194002 cpm
same,% control (incorporation of acetate),[2]; [6],97%
same,% inhibition (incorporation of acetate),[2]; [6],3%
same,Average of cpm (incorporation of acetate),[2]; [6],234524 cpm
same,cpm - t0 test (incorporation of acetate),[2]; [6],228059 cpm
same,% control (incorporation of acetate),[2]; [7],101%
same,% inhibition (incorporation of acetate),[2]; [7],weak and non-significant
same,Average of cpm (incorporation of acetate),[2]; [7],210055 cpm
same,cpm - t0 test (incorporation of acetate),[2]; [7],203590 cpm
same,% control (incorporation of acetate),[2]; [8],94%
same,% inhibition (incorporation of acetate),[2]; [8],6%
same,Average of cpm (incorporation of acetate),[2]; [8],227385 cpm
same,cpm - t0 test (incorporation of acetate),[2]; [8],220920 cpm
same,inhibition at 10 µM,[2]; [3],5%
same,inhibition at 100 µM,[2]; [5],4%
same,inhibition at 100 µM,[2]; [6],< 5%
same,inhibition at 1000 µM,[2]; [7],0%
same,inhibition at 1000 µM,[2]; [8],< 5%
"Cn1c(=O)c2[nH]cnc2n(C)c1=O [Theophylline, theophylline, reference compound]",stimulation of lipolysis,"[1]; 1 nM, p<0.05",stimulated the lipolysis
same,% Control (NEFA liberation),[1]; 10^−3 M (1 mM),390%
same,Average of the NEFA,[1]; 10^−3 M (1 mM),551 µM
"CC(C)[C@H](C)CC[C@@H](C)[C@H]1CC[C@H]2[C@@H]3CC=C4C[C@@H](O)CC[C@]4(C)[C@H]3CC[C@]12C [Campesterol, campesterol]",% Control (NEFA liberation),[1]; 10^−2 M,118%
same,Average of the NEFA,[1]; 10^−2 M,167 µM
same,% Control (NEFA liberation),[1]; 10^−3 M (1 mM),98%
same,Average of the NEFA,[1]; 10^−3 M (1 mM),138 µM
same,% Control (NEFA liberation),[1]; 10^−4 M,109%
same,Average of the NEFA,[1]; 10^−4 M,155 µM
same,% Control (NEFA liberation),[1]; 10^−5 M,99%
same,Average of the NEFA,[1]; 10^−5 M,140 µM
same,% Control (NEFA liberation),[1]; 10^−6 M (1 μM),117%
same,Average of the NEFA,[1]; 10^−6 M (1 μM),166 µM
same,stimulation of lipolysis,[1]; [9],did not stimulate lipolysis
same,incorporation of acetate by isolated human adipocytes (conclusion),[2],inhibit the incorporation of acetate
same,% control (incorporation of acetate),[2]; [3],92%
same,Average of cpm (incorporation of acetate),[2]; [3],191817 cpm
same,cpm - t0 test (incorporation of acetate),[2]; [3],185352 cpm
same,% control (incorporation of acetate),[2]; [4],101%
same,% inhibition (incorporation of acetate),[2]; [4],no significant effect
same,Average of cpm (incorporation of acetate),[2]; [4],243051 cpm
same,cpm - t0 test (incorporation of acetate),[2]; [4],236586 cpm
same,% control (incorporation of acetate),[2]; [5],90%
same,Average of cpm (incorporation of acetate),[2]; [5],188278 cpm
same,cpm - t0 test (incorporation of acetate),[2]; [5],181813 cpm
same,% control (incorporation of acetate),[2]; [6],85%
same,Average of cpm (incorporation of acetate),[2]; [6],206655 cpm
same,cpm - t0 test (incorporation of acetate),[2]; [6],200190 cpm
same,% control (incorporation of acetate),[2]; [7],74%
same,Average of cpm (incorporation of acetate),[2]; [7],156448 cpm
same,cpm - t0 test (incorporation of acetate),[2]; [7],149983 cpm
same,% control (incorporation of acetate),[2]; [8],48%
same,Average of cpm (incorporation of acetate),[2]; [8],119960 cpm
same,cpm - t0 test (incorporation of acetate),[2]; [8],113495 cpm
same,inhibition at 10 µM,[2]; [3],8%
same,inhibition at 10 µM,[2]; [4],0%
same,inhibition at 100 µM,[2]; [5],10%
same,inhibition at 100 µM,[2]; [6],15%
same,inhibition at 1000 µM,[2]; [7],26%
same,inhibition at 1000 µM,[2]; [8],52%
"CC[C@H](CC[C@@H](C)[C@H]1CC[C@H]2[C@@H]3CC=C4C[C@@H](O)CC[C@]4(C)[C@H]3CC[C@]12C)C(C)C [Beta-sitosterol, beta-sitosterol]",% Control (NEFA liberation),[1]; 10^−2 M,92%
same,Average of the NEFA,[1]; 10^−2 M,131 µM
same,% Control (NEFA liberation),[1]; 10^−3 M (1 mM),103%
same,Average of the NEFA,[1]; 10^−3 M (1 mM),145 µM
same,% Control (NEFA liberation),[1]; 10^−4 M,96%
same,Average of the NEFA,[1]; 10^−4 M,135 µM
same,% Control (NEFA liberation),[1]; 10^−5 M,107%
same,Average of the NEFA,[1]; 10^−5 M,151 µM
same,% Control (NEFA liberation),[1]; 10^−6 M (1 μM),110%
same,Average of the NEFA,[1]; 10^−6 M (1 μM),156 µM
same,stimulation of lipolysis,[1]; [9],did not stimulate lipolysis
same,incorporation of acetate by isolated human adipocytes (conclusion),[2],inhibit the incorporation of acetate
same,% control (incorporation of acetate),[2]; [3],96%
same,% inhibition (incorporation of acetate),[2]; [3],4%
same,Average of cpm (incorporation of acetate),[2]; [3],200044 cpm
same,cpm - t0 test (incorporation of acetate),[2]; [3],193579 cpm
same,% inhibition (incorporation of acetate),"[2]; 0.01 mM (10^−5 M), absence of insulin, listed as beta-sitosterol",weak and non-significant
same,% control (incorporation of acetate),[2]; [4],89%
same,Average of cpm (incorporation of acetate),[2]; [4],216417 cpm
same,cpm - t0 test (incorporation of acetate),[2]; [4],209952 cpm
same,% control (incorporation of acetate),[2]; [5],95%
same,% inhibition (incorporation of acetate),[2]; [5],5%
same,Average of cpm (incorporation of acetate),[2]; [5],198694 cpm
same,cpm - t0 test (incorporation of acetate),[2]; [5],192229 cpm
same,% inhibition (incorporation of acetate),"[2]; 0.1 mM (10^−4 M), absence of insulin, listed as beta-sitosterol",weak and non-significant
same,% control (incorporation of acetate),[2]; [6],93%
same,Average of cpm (incorporation of acetate),[2]; [6],224445 cpm
same,cpm - t0 test (incorporation of acetate),[2]; [6],217980 cpm
same,% control (incorporation of acetate),[2]; [7],84%
same,% inhibition (incorporation of acetate),[2]; [7],16%
same,Average of cpm (incorporation of acetate),[2]; [7],175711 cpm
same,cpm - t0 test (incorporation of acetate),[2]; [7],169246 cpm
same,% control (incorporation of acetate),[2]; [8],83%
same,% inhibition (incorporation of acetate),[2]; [8],17%
same,Average of cpm (incorporation of acetate),[2]; [8],201168 cpm
same,cpm - t0 test (incorporation of acetate),[2]; [8],194703 cpm
insulin,increase of the incorporation of acetate,[2]; 1 nM of insulin,16%
same,increase of the incorporation of acetate,"[2]; 100 nM of insulin, another donor",120%
"CC/C=C\C/C=C\C/C=C\C/C=C\C/C=C\CCCC(=O)O [EPA, eicosapentanoic acid, reference compound]",% control (incorporation of acetate),[2]; [5],18%
same,% inhibition (incorporation of acetate),[2]; [5],82%
same,Average of cpm (incorporation of acetate),[2]; [5],43253 cpm
same,cpm - t0 test (incorporation of acetate),[2]; [5],36788 cpm
same,% control (incorporation of acetate),[2]; [6],38%
same,% inhibition (incorporation of acetate),[2]; [6],62%
same,Average of cpm (incorporation of acetate),[2]; [6],96244 cpm
same,cpm - t0 test (incorporation of acetate),[2]; [6],89779 cpm
same,% control (incorporation of acetate),[2]; [7],3%
same,% inhibition (incorporation of acetate),[2]; [7],97%
same,Average of cpm (incorporation of acetate),[2]; [7],1287 cpm
same,cpm - t0 test (incorporation of acetate),[2]; [7],6373 cpm
same,% control (incorporation of acetate),[2]; [8],3%
same,% inhibition (incorporation of acetate),[2]; [8],97%
same,Average of cpm (incorporation of acetate),[2]; [8],13384 cpm
same,cpm - t0 test (incorporation of acetate),[2]; [8],6919 cpm
"CC(C)NCC(O)c1ccc(O)c(O)c1 (stereo not shown) [Isoproterenol, isoproterenol, reference compound]",stimulation of lipolysis,"[1]; 1 μM, p<0.05",stimulated the lipolysis
same,% Control (NEFA liberation),[1]; 10^−6 M (1 μM),342%
same,Average of the NEFA,[1]; 10^−6 M (1 μM),483 µM

# — US6596288B2, “Use of sterols as active ingredient in a cosmetic composition against adiposity” (Codif International SA, priority 2000, dated 2003)
